Data taken from patent US7659279B2, “Quinazoline derivatives and their use in the treatment of cancer” (AstraZeneca AB, priority 2003, dated 2010).

Tests used:
[1] = tested on: KB cells (human naso-pharangeal carcinoma); assay: Test (b) KB cell proliferation assay; type: cell-based; conditions: 96 h, EGF 1 ng/ml, 4 days, MTT, read-out: IC50 (nM) Test (b): EGFR driven KB cell proliferation assay
Description: b) KB Cell Proliferation Assay
This assay measures the ability of a test compound to inhibit the EGF driven proliferation of KB cells (human naso-pharangeal carcinoma obtained from the American Type Culture Collection (ATCC)).
KB cells were cultured in Dulbecco's modified Eagle's medium (DMEM) containing 10% foetal calf serum, 2 mM glutamine and non-essential amino acids at 37° C. in a 7.5% CO2 air incubator. Cells were harvested from the stock flasks using Trypsin/ethylaminediaminetetraacetic acid (EDTA). Cell density was measured using a haemocytometer and viability was calculated using trypan blue solution before being seeded at a density of 1.25×10^3 cells per well of a 96 well plate in DMEM containing 2.5% charcoal stripped serum, 2 mM glutamine and non-essential amino acids at 37° C. in 7.5% CO2 and allowed to settle for 4 hours.
Following adhesion to the plate, the cells are treated with or without EGF (final concentration of 1 ng/ml) and with or without compound at a range of concentrations in dimethylsulfoxide (DMSO) (1% final) in a final volume of 200 μl before incubation for 4 days at 37° C. in 7.5% CO2. Following the incubation period, cell numbers were determined by addition of 50 μl of 3-(4,5-Dimethylthiazol-2-yl)-2,5-diphenyltetrazolium bromide (MTT) (stock 5 mg/ml) and incubated at 37° C. in a 7.5% CO2 air incubator for 2 hours. MTT solution was then removed from the cells by aspiration, which were then allowed to air dry and were dissolved upon the addition of 100 μl of DMSO.
Absorbance of this solubilised cells was read at 540 nm to quantify cell biomass. Inhibition of proliferation was expressed as an IC50 value. This was determined by calculation of the concentration of compound that was required to give 50% inhibition of proliferation. The range of proliferation was calculated from the positive (vehicle plus EGF) and negative (vehicle minus EGF) control values.

erbB2 tyrosine kinase = target: T1, erbB2 tyrosine kinase (Homo sapiens, UniProt P04626); assay: Test (a) protein tyrosine kinase phosphorylation assay, erbB2; type: biochemical; conditions: recombinant intracellular fragment; ATP at Km concentration; read-out: IC50 (nM) Test (a): Inhibition of erbB2 tyrosine kinase protein phosphorylation
T1 construct: Recombinant intracellular fragments of EGFR, erbB2 and erbB4; made in house; host or cells: baculovirus/Sf21 insect cells (cleared lysate used)
T1 sequence (P04626 676-1255 limits assumed): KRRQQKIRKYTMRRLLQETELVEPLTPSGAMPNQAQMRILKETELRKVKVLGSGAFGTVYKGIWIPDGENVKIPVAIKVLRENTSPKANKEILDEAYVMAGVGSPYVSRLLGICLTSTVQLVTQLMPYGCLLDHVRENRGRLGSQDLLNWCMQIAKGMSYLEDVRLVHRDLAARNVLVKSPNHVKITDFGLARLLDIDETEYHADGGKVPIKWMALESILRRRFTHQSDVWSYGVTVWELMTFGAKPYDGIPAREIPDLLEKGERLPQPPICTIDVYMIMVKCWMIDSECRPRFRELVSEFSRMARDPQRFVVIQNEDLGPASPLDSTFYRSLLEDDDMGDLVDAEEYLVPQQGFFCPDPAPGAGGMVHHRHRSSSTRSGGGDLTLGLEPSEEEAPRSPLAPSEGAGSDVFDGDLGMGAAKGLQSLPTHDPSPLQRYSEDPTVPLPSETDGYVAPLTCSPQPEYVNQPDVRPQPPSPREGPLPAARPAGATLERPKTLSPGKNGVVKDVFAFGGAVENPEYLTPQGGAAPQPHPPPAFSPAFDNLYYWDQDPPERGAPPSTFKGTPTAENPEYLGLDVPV
Description: (§1) a) Protein Tyrosine Kinase Phosphorylation Assays
(§2) Recombinant intracellular fragments of EGFR, erbB2 and erbB4 (accession numbers X00588, X03363 and L07868 respectively) were cloned and expressed in the baculovirus/Sf21 system. Lysates were prepared from these cells by treatment with ice-cold lysis buffer (20 mM N-2-hydroxyethylpiperizine-N′-2-ethanesulfonic acid (HEPES) pH7.5, 150 mM NaCl, 10% glycerol, 1% Triton X-100, 1.5 mM MgCl2, 1 mM ethylene glycol-bis(β-aminoethyl ether) N′,N′,N′,N′-tetraacetic acid (EGTA), plus protease inhibitors and then cleared by centrifugation.
(§3) Constitutive kinase activity of the recombinant protein was determined by its ability to phosphorylate a synthetic peptide (made up of a random co-polymer of Glutamic Acid, Alanine and Tyrosine in the ratio of 6:3:1). Specifically, Maxisorb™ 96-well immunoplates were coated with synthetic peptide ([…] of peptide in a 100 μl phosphate buffered saline (PBS) solution and incubated at 4° C. overnight). Plates were washed in PBS-T (phosphate buffered saline with 0.5% Tween 20) then in 50 mM HEPES pH 7.4 at room temperature to remove any excess unbound synthetic peptide. EGFR, ErbB2 or ErbB4 tyrosine kinase activity was assessed by incubation in peptide coated plates for 20 minutes at 22° C. in 100 mM HEPES pH 7.4, adenosine trisphosphate (ATP) at Km concentration for the respective enzyme, 10 mM MnCl2, 0.1 mM Na3VO4, 0.2 mM DL-dithiothreitol (DTT), 0.1% Triton X-100 with test compound in DMSO (final concentration of 2.5%). Reactions were terminated by the removal of the liquid components of the assay followed by washing of the plates with PBS-T.
(§4) The immobilised phospho-peptide product of the reaction was detected by immunological methods. Firstly, plates were incubated for 90 minutes at room temperature with anti-phosphotyrosine primary antibodies that were raised in the mouse (4G10 from Upstate Biotechnology). Following extensive washing, plates were treated with Horseradish Peroxidase ([…]) conjugated sheep anti-mouse secondary antibody (NXA931 from Amersham) for 60 minutes at room temperature. After further washing, HRP activity in each well of the plate was measured […] using 22′-Azino-di-[3-ethylbenzthiazoline sulfonate (6)] diammonium salt crystals (ABTS™ from Roche) as a substrate.
(§5) Quantification of colour development and thus enzyme activity was achieved by the measurement of absorbance at 405 nm on a Molecular Devices ThermoMax microplate reader. Kinase inhibition for a given compound was expressed as an IC50 value. This was determined by calculation of the concentration of compound that was required to give 50% inhibition of phosphorylation in this assay. The range of phosphorylation was calculated from the positive (vehicle plus ATP) and negative (vehicle minus ATP) control values.

EGFR tyrosine kinase = target: T2, EGFR tyrosine kinase (Homo sapiens, UniProt P00533); assay: Test (a) protein tyrosine kinase phosphorylation assay, EGFR; type: biochemical; conditions: recombinant intracellular fragment; ATP at Km concentration; read-out: IC50 (nM) Test (a): Inhibition of EGFR tyrosine kinase protein phosphorylation
T2 construct: Recombinant intracellular fragments of EGFR, erbB2 and erbB4; made in house; host or cells: baculovirus/Sf21 insect cells (cleared lysate used)
T2 sequence (P00533 669-1210 limits assumed): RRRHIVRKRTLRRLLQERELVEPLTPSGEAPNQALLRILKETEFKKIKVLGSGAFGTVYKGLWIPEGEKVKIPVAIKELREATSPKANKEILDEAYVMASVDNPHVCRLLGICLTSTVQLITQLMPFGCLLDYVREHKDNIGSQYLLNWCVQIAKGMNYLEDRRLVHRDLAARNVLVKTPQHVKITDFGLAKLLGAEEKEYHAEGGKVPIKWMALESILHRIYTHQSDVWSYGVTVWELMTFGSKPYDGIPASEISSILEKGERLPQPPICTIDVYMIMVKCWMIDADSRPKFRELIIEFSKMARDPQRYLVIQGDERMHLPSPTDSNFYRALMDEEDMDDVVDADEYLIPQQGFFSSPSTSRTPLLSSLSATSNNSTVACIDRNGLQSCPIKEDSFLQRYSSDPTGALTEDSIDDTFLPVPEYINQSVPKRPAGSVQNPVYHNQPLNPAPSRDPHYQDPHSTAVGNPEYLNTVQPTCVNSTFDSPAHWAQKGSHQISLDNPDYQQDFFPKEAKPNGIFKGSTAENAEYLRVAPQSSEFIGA
Description: as §1
This test measures the ability of a test compound to inhibit the phosphorylation of a tyrosine containing polypeptide substrate by EGFR tyrosine kinase enzyme.
as §2, §3, §4, §5

`COc1cc(OC[C@H]2CCCN2C(=O)CN(C)C)c2c(Nc3ccc(F)c(Cl)c3)ncnc2c1` [Example 4] was tested, and the IC50 [1] was 138 nM, the IC50 (erbB2 tyrosine kinase) was 252 nM and the IC50 (EGFR tyrosine kinase) was 39 nM.
Work on `COc1cc(OC[C@@H]2CCCN2C(=O)CN2CCCC2)c2c(Nc3ccc(F)c(Cl)c3)ncnc2c1` [Example 6, N-(3-Chloro-4-fluorophenyl)-7-methoxy-5-{[(2S)-1-(pyrrolidin-1-ylacetyl)pyrrolidin-2-yl]methoxy}quinazolin-4-amine] yielded an IC50 [1] of 130 nM, an IC50 (erbB2 tyrosine kinase) of 1630 nM and an IC50 (EGFR tyrosine kinase) of 57 nM.
In the case of `COc1cc(OC[C@@H]2C[C@H](O)CN2C(=O)CN(C)C)c2c(Nc3ccc(F)c(Cl)c3)ncnc2c1` [Example 31, (3S,5S)-5-[({4-[3-Chloro-4-fluoroanilino]-7-methoxyquinazolin-5-yl}oxy)methyl]-1-(N,N-dimethylglycyl)pyrrolidin-3-ol], the IC50 [1] was 112 nM, the IC50 (erbB2 tyrosine kinase) was 532 nM and the IC50 (EGFR tyrosine kinase) was 42 nM.
`COc1cc(OC[C@H]2C[C@H](O)CN2C(C)=O)c2c(Nc3ccc(F)c(Cl)c3)ncnc2c1` [Example 22, (3S,5R)-1-Acetyl-5-[({4-[3-chloro-4-fluoroanilino]-7-methoxyquinazolin-5-yl}oxy)methyl]pyrrolidin-3-ol] gave an IC50 [1] of 75 nM, an IC50 (erbB2 tyrosine kinase) of 61 nM and an IC50 (EGFR tyrosine kinase) of 1 nM.
`CCOCCOc1cc(OC[C@H]2CCCN2C(=O)CO)c2c(Nc3ccc(F)c(Cl)c3)ncnc2c1` [Example 18, 2-[(2R)-2-({[4-[3-Chloro-4-fluoroanilino]-7-(2-ethoxyethoxy)quinazolin-5-yl]oxy}methyl)pyrrolidin-1-yl]-2-oxoethanol] showed an IC50 [1] of 99 nM, an IC50 (erbB2 tyrosine kinase) of 85 nM and an IC50 (EGFR tyrosine kinase) of 8 nM.
Compound `COc1cc(OC[C@@H]2CCCN2C(=O)CN(C)C)c2c(Nc3ccc(F)c(Cl)c3)ncnc2c1` [Example 2, N-(3-Chloro-4-fluorophenyl)-5-({(2S)-1-[(dimethylamino)acetyl]pyrrolidin-2-yl}methoxy)-7-methoxyquinazolin-4-amine] has an IC50 [1] of 141 nM, an IC50 (erbB2 tyrosine kinase) of 1850 nM and an IC50 (EGFR tyrosine kinase) of 70 nM.
Work on `COc1cc(OC[C@H]2CCCN2C(C)=O)c2c(Nc3ccc(F)c(Cl)c3)ncnc2c1` [Example 13, 5-{[(2R)-1-Acetylpyrrolidin-2-yl]methoxy}-N-(3-chloro-4-fluorophenyl)-7-methoxyquinazolin-4-amine] yielded an IC50 [1] of 28 nM, an IC50 (erbB2 tyrosine kinase) of 358 nM and an IC50 (EGFR tyrosine kinase) of 1 nM.
Work on `COc1cc(OC[C@H]2CCCN2C(=O)CO)c2c(Nc3ccc(F)c(Cl)c3)ncnc2c1` [Example 3, 2-{(2R)-2-[({4-[3-Chloro-4-fluoroanilino]-7-methoxyquinazolin-5-yl}oxy)methyl]pyrrolidin-1-yl}-2-oxoethanol] yielded an IC50 [1] of 91 nM, an IC50 (erbB2 tyrosine kinase) of 275 nM and an IC50 (EGFR tyrosine kinase) of 9 nM.
`COCC(=O)N1C[C@@H](O)C[C@@H]1COc1cc(OC)cc2ncnc(Nc3ccc(F)c(Cl)c3)c12` [Example 23, (3S,5R)-5-[({4-[3-Chloro-4-fluoroanilino]-7-methoxyquinazolin-5-yl}oxy)methyl]-1-(methoxyacetyl)pyrrolidin-3-ol] gave an IC50 [1] of 288 nM, an IC50 (erbB2 tyrosine kinase) of 1730 nM and an IC50 (EGFR tyrosine kinase) of 56 nM.
With `O=C(CO)N1CCC[C@@H]1COc1cc(OCCO)cc2ncnc(Nc3ccc(F)c(Cl)c3)c12` [Example 16, 2-[(2R)-2-({[4-[3-Chloro-4-fluoroanilino]-7-(2-hydroxyethoxy)quinazolin-5-yl]oxy}methyl)pyrrolidin-1-yl]-2-oxoethanol] the IC50 [1] was 128 nM, the IC50 (erbB2 tyrosine kinase) was 52 nM and the IC50 (EGFR tyrosine kinase) was 1 nM.
`COc1cc(OC[C@H]2C[C@@H](O)CN2C(=O)CO)c2c(Nc3ccc(F)c(Cl)c3)ncnc2c1` [Example 32, (3R,5R)-5-[({4-[3-Chloro-4-fluoroanilino]-7-methoxyquinazolin-5-yl}oxy)methyl]-1-glycoloylpyrrolidin-3-ol] gave an IC50 [1] of 118 nM, an IC50 (erbB2 tyrosine kinase) of 215 nM and an IC50 (EGFR tyrosine kinase) of 18 nM.
`COc1cc(OC[C@@H]2C[C@@H](O)CN2C(=O)CO)c2c(Nc3ccc(F)c(Cl)c3)ncnc2c1` [Example 25, (3R,5S)-5-[({4-[3-Chloro-4-fluoroanilino]-7-methoxyquinazolin-5-yl}oxy)methyl]1-glycoloylpyrrolidin-3-ol] was tested, and the IC50 [1] was 156 nM, the IC50 (erbB2 tyrosine kinase) was 1910 nM and the IC50 (EGFR tyrosine kinase) was 32 nM.
